# Measurements from PubChem BioAssay (NCI).
#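 Following 48 hours of exposure in 96-well plates, responses at five concentrations were used to interpolate endpoints linearly. GI50: concentration for 50% inhibition of growth. TGI: total growth inhibition.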
# What was measured:
# Assay in all cases: NCI-60 cell line screen, 48 h
# 786-0 renal = system: 786-0 renal
# A498 renal = system: A498 renal
# A549 NSCLC = system: A549 NSCLC
# ACHN renal = system: ACHN renal
# BT-549 breast = system: BT-549 breast
# CAKI-1 renal = system: CAKI-1 renal
# CCRF-CEM leukemia = system: CCRF-CEM leukemia
# COLO 205 colon = system: COLO 205 colon
# DU-145 prostate = system: DU-145 prostate
# EKVX NSCLC = system: EKVX NSCLC
# HCC-2998 colon = system: HCC-2998 colon
# HCT-116 colon = system: HCT-116 colon
# HCT-15 colon = system: HCT-15 colon
# HL-60(TB) leukemia = system: HL-60(TB) leukemia
# HOP-62 NSCLC = system: HOP-62 NSCLC
# HOP-92 NSCLC = system: HOP-92 NSCLC
# HS 578T breast = system: HS 578T breast
# HT29 colon = system: HT29 colon
# IGROV1 ovarian = system: IGROV1 ovarian
# K-562 leukemia = system: K-562 leukemia
# KM12 colon = system: KM12 colon
# LOX IMVI melanoma = system: LOX IMVI melanoma
# M14 melanoma = system: M14 melanoma
# MALME-3M melanoma = system: MALME-3M melanoma
# MCF7 breast = system: MCF7 breast
# MDA-MB-231 breast = system: MDA-MB-231 breast
# MDA-MB-435 = system: MDA-MB-435
# MOLT-4 leukemia = system: MOLT-4 leukemia
# NCI-H226 lung = system: NCI-H226 lung
# NCI-H23 lung = system: NCI-H23 lung
# NCI-H460 lung = system: NCI-H460 lung
# NCI-H522 lung = system: NCI-H522 lung
# NCI/ADR-RES ovarian = system: NCI/ADR-RES ovarian
# OVCAR-3 ovarian = system: OVCAR-3 ovarian
# OVCAR-4 ovarian = system: OVCAR-4 ovarian
# OVCAR-5 ovarian = system: OVCAR-5 ovarian
# OVCAR-8 ovarian = system: OVCAR-8 ovarian
# PC-3 prostate = system: PC-3 prostate
# RPMI-8226 leukemia = system: RPMI-8226 leukemia
# RXF 393 renal = system: RXF 393 renal
# SF-268 CNS = system: SF-268 CNS
# SF-295 CNS = system: SF-295 CNS
# SF-539 CNS = system: SF-539 CNS
# SK-MEL-2 melanoma = system: SK-MEL-2 melanoma
# SK-MEL-28 melanoma = system: SK-MEL-28 melanoma
# SK-MEL-5 melanoma = system: SK-MEL-5 melanoma
# SK-OV-3 ovarian = system: SK-OV-3 ovarian
# SN12C renal = system: SN12C renal
# SNB-19 CNS = system: SNB-19 CNS
# SNB-75 CNS = system: SNB-75 CNS
# SR leukemia = system: SR leukemia
# SW-620 colon = system: SW-620 colon
# T-47D breast = system: T-47D breast
# TK-10 renal = system: TK-10 renal
# U251 CNS = system: U251 CNS
# UACC-257 melanoma = system: UACC-257 melanoma
# UACC-62 melanoma = system: UACC-62 melanoma
# UO-31 renal = system: UO-31 renal
compound,measurement,setting,value
Cc1ccc2nc3ccccc3c(NCc3ccccc3)c2c1,GI50,786-0 renal,2.24 µM
same,TGI,786-0 renal,8.37 µM
same,GI50,A498 renal,1.24 µM
same,TGI,A498 renal,6.9 µM
same,GI50,A549 NSCLC,2.63 µM
same,TGI,A549 NSCLC,10.9 µM
same,GI50,ACHN renal,2.39 µM
same,TGI,ACHN renal,8.88 µM
same,GI50,BT-549 breast,5.13 µM
same,TGI,BT-549 breast,11.7 µM
same,GI50,CAKI-1 renal,2.39 µM
same,TGI,CAKI-1 renal,9.26 µM
same,GI50,CCRF-CEM leukemia,2.12 µM
same,TGI,CCRF-CEM leukemia,50 µM
same,GI50,COLO 205 colon,1.47 µM
same,TGI,COLO 205 colon,6.46 µM
same,GI50,DU-145 prostate,2.56 µM
same,TGI,DU-145 prostate,8.83 µM
same,GI50,EKVX NSCLC,5.07 µM
same,TGI,EKVX NSCLC,12.9 µM
same,GI50,HCC-2998 colon,1.86 µM
same,TGI,HCC-2998 colon,6.86 µM
same,GI50,HCT-116 colon,1.44 µM
same,TGI,HCT-116 colon,6.62 µM
same,GI50,HCT-15 colon,2.01 µM
same,TGI,HCT-15 colon,7.64 µM
same,GI50,HL-60(TB) leukemia,3.49 µM
same,TGI,HL-60(TB) leukemia,12.7 µM
same,GI50,HOP-62 NSCLC,3.77 µM
same,TGI,HOP-62 NSCLC,12.5 µM
same,GI50,HOP-92 NSCLC,1.34 µM
same,TGI,HOP-92 NSCLC,7.56 µM
same,GI50,HS 578T breast,5.14 µM
same,TGI,HS 578T breast,15.4 µM
same,GI50,HT29 colon,1.54 µM
same,TGI,HT29 colon,7.43 µM
same,GI50,IGROV1 ovarian,2.01 µM
same,TGI,IGROV1 ovarian,9.2 µM
same,GI50,K-562 leukemia,1.46 µM
same,TGI,K-562 leukemia,8.78 µM
same,GI50,KM12 colon,5.13 µM
same,TGI,KM12 colon,12.6 µM
same,GI50,LOX IMVI melanoma,1.67 µM
same,TGI,LOX IMVI melanoma,6.15 µM
same,GI50,M14 melanoma,5.83 µM
same,TGI,M14 melanoma,13 µM
same,GI50,MALME-3M melanoma,4.25 µM
same,TGI,MALME-3M melanoma,11 µM
same,GI50,MCF7 breast,1.8 µM
same,TGI,MCF7 breast,7.93 µM
same,GI50,MDA-MB-231 breast,3.33 µM
same,TGI,MDA-MB-231 breast,10.5 µM
same,GI50,MDA-MB-435,4.72 µM
same,TGI,MDA-MB-435,10.8 µM
same,GI50,MOLT-4 leukemia,1.5 µM
same,TGI,MOLT-4 leukemia,8.73 µM
same,GI50,NCI-H226 lung,3.59 µM
same,TGI,NCI-H226 lung,12 µM
same,GI50,NCI-H23 lung,3.69 µM
same,TGI,NCI-H23 lung,11.9 µM
same,GI50,NCI-H460 lung,2.07 µM
same,TGI,NCI-H460 lung,7.44 µM
same,GI50,NCI-H522 lung,2.72 µM
same,TGI,NCI-H522 lung,12.6 µM
same,GI50,NCI/ADR-RES ovarian,2.46 µM
same,TGI,NCI/ADR-RES ovarian,10.6 µM
same,GI50,OVCAR-3 ovarian,3.09 µM
same,TGI,OVCAR-3 ovarian,9.97 µM
same,GI50,OVCAR-4 ovarian,2.64 µM
same,TGI,OVCAR-4 ovarian,9.42 µM
same,GI50,OVCAR-5 ovarian,2.81 µM
same,TGI,OVCAR-5 ovarian,9.92 µM
same,GI50,OVCAR-8 ovarian,2.32 µM
same,TGI,OVCAR-8 ovarian,11.1 µM
same,GI50,PC-3 prostate,1.94 µM
same,TGI,PC-3 prostate,9.38 µM
same,GI50,RPMI-8226 leukemia,1.56 µM
same,TGI,RPMI-8226 leukemia,6.45 µM
same,GI50,RXF 393 renal,1.42 µM
same,TGI,RXF 393 renal,5.4 µM
same,GI50,SF-268 CNS,3.83 µM
same,TGI,SF-268 CNS,10.6 µM
same,GI50,SF-295 CNS,2.28 µM
same,TGI,SF-295 CNS,8.58 µM
same,GI50,SF-539 CNS,2.43 µM
same,TGI,SF-539 CNS,9.07 µM
same,GI50,SK-MEL-2 melanoma,7.79 µM
same,TGI,SK-MEL-2 melanoma,16 µM
same,GI50,SK-MEL-28 melanoma,6.67 µM
same,TGI,SK-MEL-28 melanoma,14 µM
same,GI50,SK-MEL-5 melanoma,4.46 µM
same,TGI,SK-MEL-5 melanoma,10.5 µM
same,GI50,SK-OV-3 ovarian,6.05 µM
same,TGI,SK-OV-3 ovarian,12.9 µM
same,GI50,SN12C renal,2.41 µM
same,TGI,SN12C renal,9.15 µM
same,GI50,SNB-19 CNS,4.01 µM
same,TGI,SNB-19 CNS,11 µM
same,GI50,SNB-75 CNS,5.68 µM
same,TGI,SNB-75 CNS,11.9 µM
same,GI50,SR leukemia,1.31 µM
same,TGI,SR leukemia,3.62 µM
same,GI50,SW-620 colon,1.76 µM
same,TGI,SW-620 colon,7.85 µM
same,GI50,T-47D breast,7 µM
same,TGI,T-47D breast,18.8 µM
same,GI50,TK-10 renal,6.43 µM
same,TGI,TK-10 renal,13.9 µM
same,GI50,U251 CNS,2.49 µM
same,TGI,U251 CNS,10.2 µM
same,GI50,UACC-257 melanoma,7.77 µM
same,TGI,UACC-257 melanoma,17.8 µM
same,GI50,UACC-62 melanoma,5.9 µM
same,TGI,UACC-62 melanoma,12.8 µM
same,GI50,UO-31 renal,1.44 µM
same,TGI,UO-31 renal,7.5 µM
